Data: US6387889B1, “Medicinal compositions for treating eye diseases” (Yamasa Corporation, priority 1998, dated 2002)
One block for each molecule: values may come before it.

Legend:
[1] = tested on: rabbit of normal ocular tension; assay: Test Example 2: effect of lowering ocular tension after instillation of test compound to rabbit of normal ocular tension; assay type: in vivo, Japanese white male rabbits; conditions: 0.1% (W/V), 50 μL instilled; for AUC: area under curve of time vs difference in ocular tension between treated eye and eye drop base eye, up to 480 minutes; for Emax: maximum difference in ocular tension between treated eye and eye drop base eye
Description: Compounds shown in Table 1 were used as test compounds. Each compound was dissolved in saline containing polysorbate 80 (hereinafter the saline will be referred to as “eye drop base A”) or in an aqueous solution of boric acid buffer (pH 7.0) containing polysorbate 80 (hereinafter the solution will be referred to as “eye drop base B”) (polysorbate 80 content of each base: 5 mg/mL), to thereby obtain a test solution. The amount of each compound in the resultant solution was 0.1% (W/V). The eye drop bases were employed as a control.
Japanese white male rabbits (Kitayama Labes Co., Ltd.) (weight: 2.1-3.2 kg) were employed in the test. The rabbits were retained in a box-type fixation apparatus and employed in the test.
The ocular tension of each rabbit was measured by use of Model 30 Classic Pneumatonometer (product of Mentor) without anesthesia. Before the ocular tension was measured, 0.4% oxybuprocaine hydrochloride (Benoxil 0.4% eye drop solution, product of Santen Pharmaceutical Co., Ltd.) was instilled to the eyes of each rabbit, to thereby anesthetize the surface of the cornea. The ocular tension of each rabbit was measured several times at regular intervals. After the ocular tension became stable, the ocular tension was measured three times, and the average value was employed as the ocular tension.
A 0.1% solution of each test compound (50 μL) was instilled to one eye of each of the respective rabbits, and simultaneously the eye drop base (50 μL) was instilled to the remaining eye. The ocular tensions of both eyes were measured 60 minutes before instillation of the test compound; 0 minute immediately before instillation; and 30, 60, 90, 120, 150, 180, 240, 300, 360, 420, and 480 minutes after instillation. Two to six rabbits were employed for each test compound. For control, the eye drop base was instilled to both eyes of each respective rabbit, and the ocular tension was measured in a manner similar to that described above.
For each test compound, the effect of lowering ocular tension was evaluated on the basis of the following values: the area under the curve of time versus change in difference between the ocular tension of the eye to which the test compound was instilled and that of the eye to which the eye drop base was instilled (hereinafter the area will be abbreviated as AUC (mmHg·min)); and the maximum value of difference between the ocular tension of the eye to which the test compound was instilled and that of the eye to which the eye drop base was instilled (hereinafter the value will be abbreviated as Emax (mmHg)).

[2] = tested on: ocular tension in rabbits; assay: Test Example 1: ocular tension after instillation to rabbits (FIGS. 1 and 2); assay type: in vivo, New Zealand white male rabbits; conditions: 0.03% and 0.1% (W/V) in 15% aqueous dimethyl sulfoxide, 50 μL instilled once; 15-180 minutes after instillation; CGS-21680 0.1% (w/v)
Description: 2-(1-Octynyl)adenosine, 2-(3-hydroxy-1-propynyl)adenosine, and CGS-21680 [2-((4-(2-carboxyethyl)phenylethyl)amino)adenosine-5′-N-ethyluronamide] were used as test compounds. Each compound was dissolved in a 15% aqueous solution of dimethyl sulfoxide (hereinafter the solution will be referred to as an “eye drop base”), to thereby obtain a test solution. The amounts of 2-(1-octynyl)adenosine and 2-(3-hydroxy-1-propynyl)adenosine were 0.03% (W/V) and 0.1% (W/V), respectively. The amount of CGS-21680 in the resultant solution was 0.1% (w/v). The eye drop base was employed as a control.
New Zealand white male rabbits (Tokyo Jikken Dobutsu) (weight: 2.2-3.1 kg) were employed in the test. […]
The ocular tension of each rabbit was measured by use of an applanation pneumatonometer (Alcon, PTG) without anesthesia. Before the ocular tension was measured, 0.4% oxybuprocaine hydrochloride (Benoxil 0.4% eye drop, product of Santen Pharmaceutical Co., Ltd.) was instilled to the eyes of each rabbit, to thereby anesthetize the surface of the cornea. Before administration of drugs, the ocular tension of each rabbit was measured several times at 15-minute intervals until the ocular tension became stable. After the ocular tension became stable, the ocular tension was measured three times, and the average value was employed as the normal ocular tension. […]

[3] = Test Example 3: single oral dose toxicity in rats; conditions: both sexes, SD, in vivo, rat, observed for two weeks, maximum dose
Description: To six-week-old male and female SD rats (six for each group), 2-(1-octynyl)adenosine was administered orally at a single dose of 521, 729, 1020, 1429, or 2000 mg/kg.

[4] = Test Example 3: single oral dose toxicity in dogs; conditions: both sexes, beagle, in vivo, dog, observed for two weeks, maximum dose
Description: To nine-month-old male and female beagle dogs (two for each group), 2-(1-octynyl)adenosine was administered orally at a single dose of 50, 150, or 450 mg/kg.

[5] = eye drop base A (saline with polysorbate 80)
[6] = eye drop base B (boric acid buffer pH 7.0 with polysorbate 80)

Compound: CCNC(=O)[C@H]1O[C@@H](n2cnc3c(N)nc(NCCc4ccc(CCC(=O)O)cc4)nc32)[C@H](O)[C@@H]1O [CGS-21680, 2-((4-(2-carboxyethyl)phenylethyl)amino)adenosine-5′-N-ethyluronamide, reference compound]
- AUC [1, 5]: −508.1 mmHg.min
- Emax [1, 5]: −2.5 mmHg

Compound: CCCCC#Cc1nc(N)c2ncn([C@@H]3O[C@H](CO)[C@@H](O)[C@H]3O)c2n1 [Compound 1, 2-(1-hexynyl)adenosine]
- AUC [1, 6]: −1236.0 mmHg.min
- Emax [1, 6]: −4.6 mmHg

Compound: CCCCCCC#Cc1nc(N)c2ncn([C@@H]3O[C@H](CO)[C@@H](O)[C@H]3O)c2n1 [Compound 2, 2-(1-octynyl)adenosine]
- effect of lowering ocular tension (ΔIOP) [2]: excellent effect of lowering ocular tension, as compared with CGS-21680
- AUC [1, 5]: −1093.5 mmHg.min
- Emax [1, 5]: −4.2 mmHg
- LD50 at 2 weeks [3]: ≥ 2000 mg/kg
- LD50 at 2 weeks [4]: ≥ 450 mg/kg

Compound: Nc1nc(C#CCCCCN2C(=O)c3ccccc3C2=O)nc2c1ncn2[C@@H]1O[C@H](CO)[C@@H](O)[C@H]1O [Compound 3, 2-(6-phthalimidyl-1-hexynyl)adenosine]
- AUC [1, 5]: −1471.0 mmHg.min
- Emax [1, 5]: −6.3 mmHg

Compound: Nc1nc(C#CCO)nc2c1ncn2[C@@H]1O[C@H](CO)[C@@H](O)[C@H]1O [Compound 4, 2-(3-hydroxy-1-propynyl)adenosine]
- effect of lowering ocular tension (ΔIOP) [2]: excellent effect of lowering ocular tension, as compared with CGS-21680
- AUC [1, 5]: −955.6 mmHg.min
- Emax [1, 5]: −4.3 mmHg

Compound: Nc1nc(C#CC(O)c2ccccc2)nc2c1ncn2[C@@H]1O[C@H](CO)[C@@H](O)[C@H]1O (stereo partly drawn) [Compound 5, 2-(3-hydroxy-3-phenyl-1-propynyl)adenosine]
- AUC [1, 5]: −1185.6 mmHg.min
- Emax [1, 5]: −4.8 mmHg

- melting point: 120 to 127 °C
Compound: CCOCC#Cc1nc(N)c2ncn([C@@H]3O[C@H](CO)[C@@H](O)[C@H]3O)c2n1 [Compound 6, 2-(3-ethoxy-1-propynyl)adenosine]
- AUC [1, 5]: −1538.3 mmHg.min
- Emax [1, 5]: −5.3 mmHg

Compound: CCCOCCC#Cc1nc(N)c2ncn([C@@H]3O[C@H](CO)[C@@H](O)[C@H]3O)c2n1 [Compound 7, 2-(4-propoxy-1-butynyl)adenosine]
- AUC [1, 6]: −1828.5 mmHg.min
- Emax [1, 6]: −4.9 mmHg

Compound: CCCCCCCCOCCC#Cc1nc(N)c2ncn([C@@H]3O[C@H](CO)[C@@H](O)[C@H]3O)c2n1 [Compound 8, 2-(4-octoxy-1-butynyl)adenosine]
- AUC [1, 6]: −1683.0 mmHg.min
- Emax [1, 6]: −5.4 mmHg

Compound: CCOCCCC#Cc1nc(N)c2ncn([C@@H]3O[C@H](CO)[C@@H](O)[C@H]3O)c2n1 [Compound 9, 2-(5-ethoxy-1-pentynyl)adenosine]
- AUC [1, 6]: −1117.5 mmHg.min
- Emax [1, 6]: −3.7 mmHg

Compound: Nc1nc(C#CCOC2CCCCC2)nc2c1ncn2[C@@H]1O[C@H](CO)[C@@H](O)[C@H]1O [Compound 10, 2-(3-cyclohexyloxy-1-propynyl)adenosine]
- AUC [1, 5]: −945.9 mmHg.min
- Emax [1, 5]: −4.3 mmHg

Compound: Nc1nc(C#CC2CCCC2)nc2c1ncn2[C@@H]1O[C@H](CO)[C@@H](O)[C@H]1O [Compound 11, 2-(2-cyclopentyl-1-ethynyl)adenosine]
- AUC [1, 6]: −1532.7 mmHg.min
- Emax [1, 6]: −4.4 mmHg

Compound: Nc1nc(C#CC2CCCCC2)nc2c1ncn2[C@@H]1O[C@H](CO)[C@@H](O)[C@H]1O [Compound 12, 2-(2-cyclohexyl-1-ethynyl)adenosine]
- AUC [1, 6]: −1670.2 mmHg.min
- Emax [1, 6]: −6.0 mmHg

Compound: Nc1nc(C#CCC2CCCC2)nc2c1ncn2[C@@H]1O[C@H](CO)[C@@H](O)[C@H]1O [Compound 13, 2-(3-cyclopentyl-1-propynyl)adenosine]
- AUC [1, 6]: −1053.9 mmHg.min
- Emax [1, 6]: −5.9 mmHg

Compound: Nc1nc(C#CCC2CCCCC2)nc2c1ncn2[C@@H]1O[C@H](CO)[C@@H](O)[C@H]1O [Compound 14, 2-(3-cyclohexyl-1-propynyl)adenosine]
- AUC [1, 6]: −1053.2 mmHg.min
- Emax [1, 6]: −4.0 mmHg

Compound: Nc1nc(C#CCCC2CCCC2)nc2c1ncn2[C@@H]1O[C@H](CO)[C@@H](O)[C@H]1O [Compound 15, 2-(4-cyclopentyl-1-butynyl)adenosine]
- AUC [1, 6]: −1086.0 mmHg.min
- Emax [1, 6]: −5.6 mmHg

Compound: CCCCC#Cc1nc(N)c2ncn([C@@H]3O[C@H](C(=O)NC)[C@@H](O)[C@H]3O)c2n1 [Compound 16, 2-(1-hexynyl)adenosine-4′-methylcarboxamide]
- AUC [1, 5]: −1838.3 mmHg.min
- Emax [1, 5]: −6.0 mmHg
